Measured values: article PMC11044151, “Development of Half-Sandwich Ru, Os, Rh, and Ir Complexes Bearing the Pyridine-2-ylmethanimine Bidentate Ligand Derived from 7-Chloroquinazolin-4(3H)-one with Enhanced Antiproliferative Activity” (ACS Omega, 2024)
Where two headings read alike, the source gives them in different places.

Assays:
[1] = test system: SW620D; experiment: Neutral red uptake antiproliferative assay, MDR line SW620D; assay type: cell-based, human; conditions: for IC50: exposure time 72 h, n = 3, ABCB1-overexpressing MDR line
From the text: (§1) Next, we evaluated the cytotoxicity of the synthesized complexes toward the panel of six multidrug-resistant (MDR) cell lines derived from SW620 and characterized by the overexpression of various ABC proteins, namely, ABCG2 (SW620C and SW620Mito), ABCC1 (SW620M and SW620E), and ABCB1 (SW620D, SW620E, and SW620V) (Table 3, Figures S29 and S32). […] The activity of the complexes derived from the ligand (S)-2 is also considerably higher than that of the compounds containing the ligand (R)-2. The cytotoxicity of both rhodium 4c and iridium 4d complexes is higher than that of amine (S)-1. In the case of 4c, the increase in cytotoxicity is low, with the highest value of 3.7-fold for the SW620Mito line. […] Compound 4d also exerts a 2.1- and 2.6-fold higher cytotoxicity than […] against the SW620C and SW620D lines.
(§2) For this purpose, neutral red uptake assay was performed. […] The results were presented as a percentage of control.

[2] = test system: SW620C; experiment: Neutral red uptake antiproliferative assay, MDR line SW620C; assay type: cell-based, human; conditions: for IC50: exposure time 72 h, n = 3, ABCG2-overexpressing MDR line
From the text: as §1, §2

[3] = test system: MCF7; experiment: cells; conditions: for IC50: read-out: IC50 MCF7
From the text: (§3) To assess the impact of conjugating half-sandwich complexes with amines 1 via an imine-pyridine ligand on biological activity, we examined the antiproliferative potential of (R)- and (S)-1 and organometallic conjugates 3a–d and 4a–d in selected human cancer cell lines: alveolar basal epithelial cell adenocarcinoma (A549), colorectal adenocarcinomas (Colo205 and SW620), colorectal carcinoma (HCT116), hepatocellular carcinoma (HepG2), and breast adenocarcinoma (MCF7). The choice of cell lines was dictated by results of previously published clinical trials on ispinesib.[49],[50]
(§4) Cell lines used in this study were purchased from the American Type Culture Collection via LGC Standards. Human normal lung fibroblasts (MRC-5), alveolar basal epithelial cell adenocarcinoma (A549), colorectal adenocarcinoma (Colo205), hepatocellular carcinoma (HepG2), breast adenocarcinoma (MCF7), and colorectal adenocarcinoma (SW620) and its MDR variants[55] were cultured in standard conditions (37 °C, 5% CO2, 100% relative humidity) in high glucose DMEM medium supplemented with GlutaMax, HEPES (ThermoFisher Scientific) and 10% fetal bovine serum (EURx, Poland). All cell lines were tested for Mycoplasma contamination using a MycoProbe mycoplasma detection kit (R&D System).
(§5) For this purpose, neutral red uptake assay was performed. 10^4 of cells were seeded per well of a 96-well plate and left overnight to allow cells to attach to the surface. Then, the cells were exposed to a desired concentration of tested compounds. Stock solutions were prepared in DMSO and were used immediately after preparation. The final concentration of DMSO was constant and nontoxic (0.1% v/v). After 70 h of culture, neutral red was added to the final concentration of 1 mM. After 2 h of incubation with the dye, the medium was aspirated and cells were washed with ice-cold PBS. The dye was released using 100 μL of the solubilizer (1% acetic acid in 50% ethanol) on an orbital shaker (10 min). The absorbance at 540 nm was measured using an EnVision multilabel plate reader (PerkinElmer). […] The IC90 and IC50 parameters were calculated using GraphPad Prism v9 software using the five-parameter nonlinear logistic regression model.

[4] = test system: HepG2; experiment: cells; conditions: for IC50: read-out: IC50 HepG2
From the text: as §3, §4, §5

[5] = test system: Colo205; experiment: cells; conditions: for IC50: read-out: IC50 Colo205
From the text: as §3, §4, §5

[6] = test system: SW620M; experiment: Neutral red uptake antiproliferative assay, MDR line SW620M; assay type: cell-based, human; conditions: for IC50: exposure time 72 h, n = 3, ABCC1-overexpressing MDR line
From the text: as §1, §2

[7] = test system: HCT116; experiment: cells; conditions: for IC50: read-out: IC50 HCT116
From the text: as §3, §5

[8] = test system: A549; experiment: Neutral red uptake antiproliferative assay, A549; conditions: for IC50: read-out: IC50 A549
From the text: as §3, §4, §5

[9] = test system: SW620 cells; experiment: Cell cycle distribution by flow cytometry, SW620; assay type: cell-based, human; conditions: concentration equal to IC75 of (S)-1 / (R)-1, mean ± SEM, n = 3; for Cell cycle fraction G1, 24 h / Cell cycle fraction G2/M, 24 h / Cell cycle fraction S, 24 h: SW620, 24 h; for Cell cycle fraction G1, 48 h / Cell cycle fraction G2/M, 48 h / Cell cycle fraction S, 48 h: SW620, 48 h
Protocol: Ispinesib leads to the formation of monopolar mitotic spindles and a blockade of chromosome segregation in cancer cells. Using flow cytometry, we assessed the cell cycle distribution in the SW620 and SW620E cells exposed to the studied compounds for 24 and 48 h. […] Both complexes, 3c and 3d, decrease the percentage of cells in the G1/G0 phase and increase the percentage in the S and G2/M phases. […] Furthermore, prolonged exposure to the compounds increases the percentage of cells in the G2/M phase, with the most intensive effect observed for 3c and 3d.
SW620 and SW620E cells lines (vulnerable and resistant variants, respectively) were seeded in 6-well plates at a density of 10^5 cells per well. […] After 24 h, the cells were trypsinized and fixed with ice-cold 70% v/v ethanol. The cells were stained with 75 μM propidium iodide with 50 Kunitz units of RNase A in PBS for 30 min at 37 °C. All samples were analyzed using a LSRII flow cytometer (Becton Dickinson) at a PE channel ([…]). Cell cycle phase distribution was determined using a built-in cell cycle module (Watson pragmatic algorithm) by FlowJo 7.6.1 software.

[10] = test system: SW620; experiment: Neutral red uptake antiproliferative assay, SW620; assay type: cell-based, human; conditions: for IC50: exposure time 72 h, n = 3, 95% CI given
From the text: as §3, §4, §5

[11] = test system: SW620Mito; experiment: Neutral red uptake antiproliferative assay, MDR line SW620Mito; assay type: cell-based, human; conditions: for IC50: exposure time 72 h, n = 3, ABCG2-overexpressing MDR line
From the text: as §1, §2

[12] = test system: SW620E; experiment: Neutral red uptake antiproliferative assay, MDR line SW620E; assay type: cell-based, human; conditions: for IC50: exposure time 72 h, n = 3, ABCC1- and ABCB1-overexpressing MDR line
From the text: as §1, §2

[13] = test system: SW620V; experiment: Neutral red uptake antiproliferative assay, MDR line SW620V; assay type: cell-based, human; conditions: for IC50: exposure time 72 h, n = 3, ABCB1-overexpressing MDR line
From the text: as §1, §2

[14] = biological target: T1, KSP (Homo sapiens, UniProt P52732); experiment: Kinesin ATPase inhibition (ATP hydrolysis) end-point assay; assay type: biochemical; conditions: 100 nM stated for ispinesib and (R)-1; concentration not restated for the complexes
T1 construct: purchased Cytoskeleton, Inc
T1 sequence (P52732 1-368 limits assumed): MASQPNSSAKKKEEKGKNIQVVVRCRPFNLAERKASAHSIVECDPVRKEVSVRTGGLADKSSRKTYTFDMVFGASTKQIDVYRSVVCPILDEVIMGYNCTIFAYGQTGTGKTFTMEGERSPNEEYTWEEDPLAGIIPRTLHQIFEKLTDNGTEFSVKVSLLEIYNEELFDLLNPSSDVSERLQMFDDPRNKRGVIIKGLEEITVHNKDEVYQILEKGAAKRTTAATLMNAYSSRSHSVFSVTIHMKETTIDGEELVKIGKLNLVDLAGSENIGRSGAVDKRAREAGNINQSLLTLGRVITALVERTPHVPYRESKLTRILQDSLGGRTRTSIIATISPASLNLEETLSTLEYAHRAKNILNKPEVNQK
Protocol: The mechanism of the anticancer activity of ispinesib is related to the inhibition of the activity of the KSP. Thus, we studied the synthesized compounds’ ability to inhibit KSP activity using the adenosine 5′-triphosphate (ATP) hydrolysis assay.
The potential kinesin modulatory activity of tested compounds was performed using a Kinesin ATPase end-point biochem kit (Cytoskeleton, Inc.). […] The experiment was performed according to the manufacturer’s instructions. One μg of tested kinesin (KSP) was used per reaction. Phosphate release was measured at the absorbance 650 nm using an EnVision multilabel plate reader (PerkinElmer).

[15] = test system: human cancer cell lines (A549, Colo205, HCT116, HepG2, MCF7, SW620); experiment: Neutral red uptake antiproliferative assay, panel of human cancer cell lines; assay type: cell-based; conditions: cell line not stated
From the text: as §3
as §5, with “The dye was released using 100 μL of the solubilizer (1% acetic acid in 50% ethanol) on an orbital shaker (10 min).” left out

[16] = compared with the amine of opposite configuration, (R)-1
[17] = vs corresponding amine (R)-1 or (S)-1, 72 h
[18] = exposure time 72 h, n = 3, 95% CI given

SMILES: CC(C)[C@@H](N)c1nc2cc(Cl)ccc2c(=O)n1Cc1ccccc1 [(R)-1, reference compound]
- IC50 ([1]; Homo sapiens): 1120 nM
- IC50 ([2]; Homo sapiens): 721 nM
- IC50 ([3]; Homo sapiens, MCF7, 72 h): 231 nM
- IC50 ([4]; Homo sapiens, HepG2, 72 h): 566 nM
- IC50 ([5]; Homo sapiens, COLO 205, 72 h): 107 nM
- IC50 ([6]; Homo sapiens): 241 nM
- IC50 ([7]; Homo sapiens, HCT-116, 72 h): 346 nM
- IC50 ([8]; Homo sapiens, A549, 72 h): 2210 nM
- Cell cycle fraction G1, 24 h [9]: 45.4 ± 1.0%
- Cell cycle fraction G2/M, 24 h [9]: 36.6 ± 2.2%
- Cell cycle fraction S, 24 h [9]: 17.2 ± 1.3%
- Cell cycle fraction G1, 48 h [9]: 36.2 ± 1.4%
- Cell cycle fraction G2/M, 48 h [9]: 42.1 ± 0.4%
- Cell cycle fraction S, 48 h [9]: 19.0 ± 0.6%
- IC50 ([10]; Homo sapiens, SW-620): 96 nM
- IC50 ([11]; Homo sapiens): 261 nM
- IC50 ([12]; Homo sapiens): 835 nM
- IC50 ([13]; Homo sapiens): 206 nM
- KSP residual activity [14]: about 35%

SMILES: CC(C)[C@H](N=Cc1ccccn1)c1nc2cc(Cl)ccc2c(=O)n1Cc1ccccc1.Cc1c(C)c(C)[c-](C)c1C.F[P-](F)(F)(F)(F)F.[Cl-].[Ir+3] [Compound 4d, [(Cp*)Ir((S)-2)Cl]PF6]
- higher cytotoxicity than (R)-1, SW620D [1, 16]: 2.6 fold
- IC50 [1]: 425 nM
- activity factor IC50(1)/IC50(3a–4d), SW620D [1, 17]: (9.76)
- higher cytotoxicity than (R)-1, SW620C [2, 16]: 2.1 fold
- IC50 [2]: 343 nM
- activity factor IC50(1)/IC50(3a–4d), SW620C [2, 17]: (9.71)
- higher cytotoxicity compared to (R)-1 [15]: 1.6 fold
- higher cytotoxicity compared to (S)-1 [15]: 2.6 fold
- IC50 [3, 18]: 216 nM
- activity factor IC50(1)/IC50(3a–4d), MCF7 [3, 17]: (18.10)
- IC50 [4, 18]: 218 nM
- activity factor IC50(1)/IC50(3a–4d), HepG2 [4, 17]: (11.01)
- IC50 [5, 18]: 216 nM
- activity factor IC50(1)/IC50(3a–4d), Colo205 [5, 17]: (28.1)
- IC50 [6]: 387 nM
- activity factor IC50(1)/IC50(3a–4d), SW620M [6, 17]: (8.94)
- IC50 [7, 18]: 222 nM
- activity factor IC50(1)/IC50(3a–4d), HCT116 [7, 17]: (36.31)
- IC50 [8, 18]: 764 nM
- activity factor IC50(1)/IC50(3a–4d), A549 [8, 17]: (9.23)
- Cell cycle fraction G1, 24 h [9]: 51.7 ± 1.2%
- Cell cycle fraction G2/M, 24 h [9]: 28.9 ± 0.4%
- Cell cycle fraction S, 24 h [9]: 14.3 ± 0.2%
- Cell cycle fraction G1, 48 h [9]: 44.1 ± 0.5%
- Cell cycle fraction G2/M, 48 h [9]: 40.6 ± 1.3%
- Cell cycle fraction S, 48 h [9]: 13.7 ± 0.4%
- IC50 [10]: 139 nM
- activity factor IC50(1)/IC50(3a–4d), SW620 [10, 17]: (20.65)
- IC50 [11]: 365 nM
- activity factor IC50(1)/IC50(3a–4d), SW620Mito [11, 17]: (10.71)
- IC50 [12]: 663 nM
- activity factor IC50(1)/IC50(3a–4d), SW620E [12, 17]: (6.11)
- IC50 [13]: 411 nM
- activity factor IC50(1)/IC50(3a–4d), SW620V [13, 17]: (8.37)

SMILES: Cc1ccc(C(=O)N(CCCN)[C@@H](c2nc3cc(Cl)ccc3c(=O)n2Cc2ccccc2)C(C)C)cc1 [ispinesib, reference compound]
- KSP residual activity [14]: 2.2%
